Measured values as given in patent publication US4492693A, “Benzothienylglycyl cephalosporin derivatives” (priority 1983, dated 1985).
Like-named read-outs stand apart in the source and are kept apart here.

Columns and labels:
Assay type in all cases: cell-based
Strep. D = assay: Agar Dilution MIC (Table I); details: for MIC: read-out: Agar Dilution MIC
Description: (§1) A typical and preferred compound provided by this invention is 7-(3-benzothienyl)glycylamido-3-methyl-3-cephem-4-carboxylic acid, the compound illustrated in Example 9. The antibacterial activity of this compound has been determined in standard in vitro agar dilution assays against a variety of gram positive and gram negative microorganism. The following Tables present typical minimum inhibitory concentrations (MIC's) in μg/ml for several compounds of the invention when evaluated against the indicated microorganisms. MIC's for several known compounds are also presented for comparison.
Agar Dilution MIC (μg/ml)

Strep. PN = assay: Agar Dilution MIC (Table I); details: strain PARK
H. influ. = assay: Agar Dilution MIC (Table I); details: read-out: Agar Dilution MIC
E. coli = assay: Agar Dilution MIC (Table I); details: Escherichia coli
Staph. epi [1] = assay: Agar Dilution MIC (Table I); details: read-out: Agar Dilution MIC
Bacteroides fragilis = assay: Susceptibility of Anaerobic Bacteroides Isolates by the Agar-Dilution Method (Table III); details: 24 h
Description: as §1
(§2) Susceptibility of Anaerobic Bacteroides Isolates by the
(§3) Agar-Dilution Method MIC (μg/ml) readings 24 hrs. after incubation

Bacteroides corrodens = assay: as above; details: Eikenella corrodens; strain 1874; readings 24 hrs. after incubation
Description: as §1, §2, §3

[2] = tested on: Bacteroides thetaiotaomicron; assay: as above; details: 24 h
Description: as §1, §2, §3

H. influenzae = assay: Expanded Spectrum MIC (Table II); details: Haemophilus influenzae
Description: as §1
(§4) Expanded Spectrum MIC (μg/ml)

Staph. aureus [3] = assay: Expanded Spectrum MIC (Table II); details: Staphylococcus aureus
Description: as §1, §4

Staph. epi [4] = assay: Expanded Spectrum MIC (Table II)
Description: as §1, §4

Staph. aureus [5] = assay: Agar Dilution MIC (Table I); details: Staphylococcus aureus
Strep. A = assay: Agar Dilution MIC (Table I); details: strain C203; read-out: Agar Dilution MIC
Klebsiella = assay: Agar Dilution MIC (Table I); details: for MIC: Klebsiella, read-out: Agar Dilution MIC
[6] = strain 9, readings 24 hrs. after incubation
[7] = strain 103, readings 24 hrs. after incubation
[8] = strain 104, readings 24 hrs. after incubation
[9] = strain 106, readings 24 hrs. after incubation
[10] = strain 107, readings 24 hrs. after incubation
[11] = strain 108, readings 24 hrs. after incubation
[12] = strain 110, readings 24 hrs. after incubation
[13] = strain 111, readings 24 hrs. after incubation
[14] = strain 1877, readings 24 hrs. after incubation
[15] = strain 1438, readings 24 hrs. after incubation
[16] = strain 1900A, readings 24 hrs. after incubation

CC1=C(C(=O)O)N2C(=O)C(NC(=O)[C@H](N)c3csc4c(F)cccc34)C2SC1 (stereo partly drawn) [Ex. 20, D-7-(7-Fluoro-3-benzothienyl)glycylamido-3-methyl-3-cephem-4-carboxylic acid]
0.5 µg/mL: MIC (Strep. PN) | MIC (H. influ.; strain 76) | MIC (Staph. aureus [5]; strain X1.1, read-out: Agar Dilution MIC)
64 µg/mL: MIC (Bacteroides fragilis; [7]) | MIC (Bacteroides corrodens) | MIC (H. influenzae; strain M366) | MIC (H. influenzae; strain R465) | MIC (H. influenzae; strain STEL)
128 µg/mL: MIC (Strep. D) | Agar Dilution MIC (Strep. D; strain 2041) | MIC (E. coli; strain EC14) | MIC (E. coli; strain N10) | MIC (E. coli; strain TEM) | MIC (Bacteroides fragilis; [13]) | MIC (Staph. aureus [5]; strain X400, read-out: Agar Dilution MIC) | MIC (Klebsiella) | Agar Dilution MIC (Klebsiella; strain X68)
16 µg/mL: MIC (Bacteroides fragilis; [6]) | MIC (Bacteroides fragilis; [9]) | MIC (Bacteroides fragilis; [14]) | MIC [2, 15] | MIC (H. influenzae; strain C.L.) | MIC (Staph. epi [4]; strain EPI1) | MIC (Staph. aureus [5]; strain V41, read-out: Agar Dilution MIC)
0.125 µg/mL: MIC (Strep. A)
8 µg/mL: MIC (Bacteroides fragilis; [8]) | MIC (Bacteroides fragilis; [11]) | MIC (H. influenzae; strain HESS) | MIC (Staph. epi [4]; strain 270) | MIC (Staph. aureus [5]; read-out: Agar Dilution MIC, strain S13E)
2 µg/mL: MIC (Staph. epi [1]; strain 222) | MIC (H. influenzae; strain 105) | MIC (H. influenzae; strain 158) | MIC (H. influenzae; strain 164) | MIC (H. influenzae; strain 171) | MIC (H. influenzae; strain 4842) | MIC (H. influenzae; strain M370) | MIC (H. influenzae; strain M371) | MIC (Staph. aureus [3]; strain S224) | MIC (Staph. aureus [3]; strain S225) | MIC (Staph. aureus [3]; strain S226) | MIC (Staph. aureus [3]; strain S227) | MIC (Staph. aureus [3]; strain S228) | MIC (Staph. aureus [3]; strain S229) | MIC (Staph. aureus [3]; strain S230) | MIC (Staph. aureus [3]; strain S234) | MIC (Staph. aureus [3]; strain S237) | MIC (Staph. aureus [3]; strain S239) | MIC (Staph. epi [4]; strain 219)
1 µg/mL: MIC (H. influenzae; strain 76) | MIC (H. influenzae; strain 1683) | MIC (Staph. aureus [3]; strain S231) | MIC (Staph. epi [4]; strain 286)
32 µg/mL: MIC (Bacteroides fragilis; [10]) | MIC (Bacteroides fragilis; [12]) | MIC [2, 16]
4 µg/mL: MIC (H. influ.; strain C.L.) | MIC (Staph. epi [1]; strain EPI1) | MIC (H. influenzae; strain 169) | MIC (H. influenzae; strain 312) | MIC (H. influenzae; strain 1930) | MIC (Staph. aureus [3]; strain S238) | MIC (Staph. epi [4]; strain 269) | MIC (Staph. epi [4]; strain 285) | MIC (Klebsiella; strain X26)

CC1=C(C(=O)O)N2C(=O)C(NC(=O)[C@H](N)c3csc4cccc(F)c34)C2SC1 (stereo partly drawn) [Ex. 19, D-7-(4-Fluoro-3-benzothienyl)glycylamido-3-methyl-3-cephem-4-carboxylic acid]
16 µg/mL: MIC (H. influ.; strain C.L.) | MIC (Bacteroides fragilis; [8]) | MIC (Bacteroides fragilis; [11]) | MIC [2, 15] | MIC (H. influenzae; strain 1930) | MIC (H. influenzae; strain C.L.) | MIC (H. influenzae; strain HESS) | MIC (Klebsiella; strain X26)
2 µg/mL: MIC (H. influenzae; strain 1683) | MIC (Staph. aureus [3]; strain S231)
64 µg/mL: MIC (Bacteroides fragilis; [13]) | MIC (H. influenzae; strain M366) | MIC (H. influenzae; strain R465) | MIC (H. influenzae; strain STEL)
128 µg/mL: MIC (Strep. D; strain 2041) | MIC (Strep. D; strain X66) | MIC (E. coli; strain EC14) | MIC (E. coli; strain N10) | MIC (E. coli; strain TEM) | MIC (Klebsiella; strain KAE) | MIC (Klebsiella; strain X68)
8 µg/mL: MIC (Bacteroides fragilis; [6]) | MIC (Bacteroides fragilis; [9]) | MIC (Bacteroides fragilis; [10]) | MIC (Bacteroides fragilis; [12]) | MIC (Bacteroides fragilis; [14]) | MIC (H. influenzae; strain 312) | MIC (H. influenzae; strain 4842) | MIC (Staph. aureus [3]; strain S229) | MIC (Staph. aureus [3]; strain S238) | MIC (Staph. aureus [3]; strain S239)
1 µg/mL: MIC (Strep. A)
32 µg/mL: MIC (Bacteroides fragilis; [7]) | MIC (Bacteroides corrodens) | MIC [2, 16]
4 µg/mL: MIC (Strep. PN) | MIC (H. influ.; strain 76) | MIC (H. influenzae; strain 76) | MIC (H. influenzae; strain 105) | MIC (H. influenzae; strain 158) | MIC (H. influenzae; strain 164) | MIC (H. influenzae; strain 169) | MIC (H. influenzae; strain 171) | MIC (H. influenzae; strain M370) | MIC (H. influenzae; strain M371) | MIC (Staph. aureus [3]; strain S224) | MIC (Staph. aureus [3]; strain S225) | MIC (Staph. aureus [3]; strain S226) | MIC (Staph. aureus [3]; strain S227) | MIC (Staph. aureus [3]; strain S228) | MIC (Staph. aureus [3]; strain S230) | MIC (Staph. aureus [3]; strain S234) | MIC (Staph. aureus [3]; strain S237)

CO[C@@]1(NC(=O)C(C(=O)O)c2ccc(O)cc2)C(=O)N2C(C(=O)O)=C(CSc3nnnn3C)CO[C@@H]21 (stereo partly shown) [moxalactam, reference compound]
2 µg/mL: MIC (Bacteroides fragilis; [14]) | MIC [2, 15]
0.5 µg/mL: MIC (Bacteroides fragilis; [6]) | MIC (Bacteroides fragilis; [8]) | MIC (Bacteroides fragilis; [11]) | MIC (Bacteroides fragilis; [12])
8 µg/mL: MIC (Bacteroides fragilis; [13]) | MIC (Bacteroides corrodens)
64 µg/mL: MIC [2, 16]
1 µg/mL: MIC (Bacteroides fragilis; [9]) | MIC (Bacteroides fragilis; [10])
4 µg/mL: MIC (Bacteroides fragilis; [7])
